Experimental data from US8415469B2, “Compounds and methods for kinase modulation, and indications therefor” (Plexxikon Inc., priority 2005, dated 2013).

What was measured:
Format in all cases: biochemical
FGFR1 = biological target: T1, FGFR1 (Homo sapiens, UniProt P11362, C488A/C584S); experiment: AlphaScreen kinase assay, FGFR1; conditions: read-out: IC50, activity toward kinase FGFR
T1 construct: P1351.pET N6 BI-PTP FGFR A458-E765-X C488A, C584S; made in house; host or cells: E. coli (PTP1B co-expressed)

Kdr = biological target: T2, Kdr (Homo sapiens, UniProt P35968); experiment: Z'-Lyte FRET kinase assay (Invitrogen), Kdr; conditions: read-out: IC50, activity toward kinase Kdr
T2 construct: purchased Invitrogen (assay run by Invitrogen)

Ret = biological target: T3, Ret (Homo sapiens, UniProt P07949); experiment: AlphaScreen kinase assay, Ret; conditions: read-out: IC50, activity toward kinase Ret
T3 construct: P1378.pET-SF BI-PTP RET H661-R1012 HIS; made in house
T3 sequence (P07949 with tags, fused parts or gaps): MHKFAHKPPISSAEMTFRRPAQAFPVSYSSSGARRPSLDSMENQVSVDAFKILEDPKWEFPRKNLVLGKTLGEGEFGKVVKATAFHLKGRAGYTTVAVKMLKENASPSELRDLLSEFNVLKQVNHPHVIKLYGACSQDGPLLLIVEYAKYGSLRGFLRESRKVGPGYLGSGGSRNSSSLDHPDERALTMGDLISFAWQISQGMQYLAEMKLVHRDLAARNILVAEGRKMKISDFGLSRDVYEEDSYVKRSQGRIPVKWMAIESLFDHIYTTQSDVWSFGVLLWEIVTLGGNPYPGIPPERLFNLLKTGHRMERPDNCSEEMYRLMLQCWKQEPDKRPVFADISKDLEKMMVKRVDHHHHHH

IKK beta = biological target: T4, IKK beta (Homo sapiens, UniProt O14920); experiment: AlphaScreen kinase assay, IKK beta; conditions: read-out: IC50, activity toward kinase IKK beta
T4 sequence (O14920 1-756): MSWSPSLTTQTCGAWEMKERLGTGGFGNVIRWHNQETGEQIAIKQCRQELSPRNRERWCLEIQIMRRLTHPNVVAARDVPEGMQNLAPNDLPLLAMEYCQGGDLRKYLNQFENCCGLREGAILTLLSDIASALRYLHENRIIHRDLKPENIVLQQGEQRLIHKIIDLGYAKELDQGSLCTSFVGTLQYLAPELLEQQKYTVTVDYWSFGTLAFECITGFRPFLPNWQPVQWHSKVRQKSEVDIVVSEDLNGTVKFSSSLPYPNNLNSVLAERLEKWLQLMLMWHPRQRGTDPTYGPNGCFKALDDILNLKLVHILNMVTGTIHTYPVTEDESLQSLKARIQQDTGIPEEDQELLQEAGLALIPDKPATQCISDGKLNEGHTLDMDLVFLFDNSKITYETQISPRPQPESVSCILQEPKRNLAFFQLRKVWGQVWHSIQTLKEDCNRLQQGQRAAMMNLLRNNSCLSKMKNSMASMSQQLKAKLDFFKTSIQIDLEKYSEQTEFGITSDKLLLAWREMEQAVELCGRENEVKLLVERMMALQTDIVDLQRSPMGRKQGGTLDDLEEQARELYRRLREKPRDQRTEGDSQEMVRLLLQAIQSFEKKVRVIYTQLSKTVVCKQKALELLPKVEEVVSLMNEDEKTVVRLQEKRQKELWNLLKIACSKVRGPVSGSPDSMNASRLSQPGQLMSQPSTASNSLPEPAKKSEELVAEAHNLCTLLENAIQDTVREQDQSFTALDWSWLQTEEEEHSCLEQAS

Jnk3 = biological target: T5, Jnk3 (Homo sapiens, UniProt P53779); experiment: AlphaScreen kinase assay, Jnk3; conditions: read-out: IC50, activity toward kinase Jnk3
T5 construct: purchased Upstate Biotechnology

Kit = biological target: T6, Kit (Homo sapiens, UniProt P10721); experiment: AlphaScreen kinase assay, Kit; conditions: read-out: IC50, activity toward kinase Kit
T6 construct: P1332.N6 BI PTP KIT M552-K948-X COD; His6 (N); made in house; host or cells: E. coli (PTP1B co-expressed)

Stk6 = biological target: T7, Stk6 (Homo sapiens, UniProt O14965); experiment: Z'-Lyte FRET kinase assay (Invitrogen), Stk6; conditions: read-out: IC50, activity toward kinase Stk6
T7 construct: purchased Invitrogen (Carlsbad, Calif.), screening service
T7 sequence (O14965 1-403): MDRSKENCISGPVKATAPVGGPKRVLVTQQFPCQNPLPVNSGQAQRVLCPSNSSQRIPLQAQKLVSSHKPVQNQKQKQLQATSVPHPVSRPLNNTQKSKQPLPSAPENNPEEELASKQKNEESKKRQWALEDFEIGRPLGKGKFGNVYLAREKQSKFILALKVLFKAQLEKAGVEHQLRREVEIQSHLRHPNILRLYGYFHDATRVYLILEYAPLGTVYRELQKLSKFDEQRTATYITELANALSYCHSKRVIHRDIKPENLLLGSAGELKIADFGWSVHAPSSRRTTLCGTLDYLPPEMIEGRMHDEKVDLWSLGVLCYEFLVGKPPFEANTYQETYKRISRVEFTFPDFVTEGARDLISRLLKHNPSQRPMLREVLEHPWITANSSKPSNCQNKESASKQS

B-Raf = biological target: T8, B-Raf (Homo sapiens, UniProt P15056); experiment: AlphaScreen kinase assay, B-Raf; conditions: read-out: IC50, activity toward kinase B-Raf
T8 construct: purchased Upstate Biotechnology

B-Raf V600E = biological target: T9, B-Raf V600E (Homo sapiens, UniProt P15056, V600E); experiment: AlphaScreen kinase assay, B-Raf V600E; conditions: read-out: IC50, activity toward kinase B-Raf V600E
T9 construct: P4254. pFastBacBD-CDC37 BRAF D437-K722-X, V600E; His6 with pFastBac HT leader (TEV site) (N); made in house; host or cells: Sf9 (baculovirus; chaperone CDC37 co-expressed)

c-Raf-1 = biological target: T10, c-Raf-1 (Homo sapiens, UniProt P04049); experiment: AlphaScreen kinase assay, c-Raf-1; conditions: read-out: IC50, activity toward kinase c-Raf-1
T10 construct: purchased Upstate Biotechnology

MAP4K4 = MAP4K4 (Homo sapiens, UniProt O95819); experiment: AlphaScreen kinase assay, MAP4K4; conditions: read-out: IC50, activity toward kinase MAP4K4
Flt1 = biological target: T11, Flt1 (Homo sapiens, UniProt P17948); experiment: AlphaScreen kinase assay, Flt1; conditions: read-out: IC50, activity toward kinase Flt1
T11 construct: P1826.pETN6 BI-PTP FLT1 M799-D1165-X WT; His6 (N); made in house; host or cells: E. coli (PTP1B co-expressed)
T11 sequence (P17948 with tags, fused parts or gaps): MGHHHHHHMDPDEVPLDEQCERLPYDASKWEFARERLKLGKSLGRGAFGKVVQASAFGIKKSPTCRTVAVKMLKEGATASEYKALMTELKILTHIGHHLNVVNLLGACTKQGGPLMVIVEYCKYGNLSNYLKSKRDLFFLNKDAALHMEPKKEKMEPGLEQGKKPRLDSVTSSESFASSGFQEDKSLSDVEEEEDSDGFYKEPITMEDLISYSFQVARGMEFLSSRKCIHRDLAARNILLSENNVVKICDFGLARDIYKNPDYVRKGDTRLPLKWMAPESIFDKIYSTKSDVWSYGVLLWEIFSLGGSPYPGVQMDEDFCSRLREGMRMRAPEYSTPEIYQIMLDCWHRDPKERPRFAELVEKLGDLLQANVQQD

Met = biological target: T12, Met (Homo sapiens, UniProt P08581); experiment: AlphaScreen kinase assay, Met; conditions: read-out: IC50, activity toward kinase Met
T12 construct: P1818.pETN6 BI-PTP MET G1056-G1364-X WT; His6 (N); made in house; host or cells: E. coli (PTP1B co-expressed)
How it was run: (§1)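 Inhibition reads as diminished acceptor emission, since unphosphorylated peptide fails to bridge antibody acceptor beads and streptavidin donor beads. Titration: eight points, 1:3 steps, stocks at 20 mM in DMSO.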

Akt3 = Akt3 (Homo sapiens, UniProt Q9Y243); experiment: AlphaScreen kinase assay, Akt3; conditions: read-out: IC50, activity toward kinase Akt3
How it was run: as §1

MAP2K1 = biological target: T13, MAP2K1 (Homo sapiens, UniProt Q02750); experiment: Z'-Lyte FRET kinase assay (Invitrogen), MAP2K1; conditions: read-out: IC50, activity toward kinase MAP2K1
T13 construct: purchased Invitrogen (assay run by Invitrogen)

Btk = biological target: T14, Btk (Homo sapiens, UniProt Q06187); experiment: Z'-Lyte FRET kinase assay (Invitrogen), Btk; conditions: read-out: IC50, activity toward kinase Btk
T14 construct: purchased Invitrogen (assay run by Invitrogen)

Measured: IC50

T9 sequence (P15056 with tags, fused parts or gaps V600E): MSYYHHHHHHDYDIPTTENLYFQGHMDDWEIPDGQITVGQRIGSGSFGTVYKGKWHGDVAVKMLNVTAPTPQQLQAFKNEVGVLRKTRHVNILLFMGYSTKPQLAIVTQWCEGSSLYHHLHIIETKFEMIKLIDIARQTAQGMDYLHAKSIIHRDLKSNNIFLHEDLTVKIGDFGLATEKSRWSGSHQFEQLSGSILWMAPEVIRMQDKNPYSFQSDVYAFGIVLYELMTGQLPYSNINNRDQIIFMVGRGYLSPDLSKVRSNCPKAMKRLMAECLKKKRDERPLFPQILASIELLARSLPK
T13 sequence (Q02750 whole entry): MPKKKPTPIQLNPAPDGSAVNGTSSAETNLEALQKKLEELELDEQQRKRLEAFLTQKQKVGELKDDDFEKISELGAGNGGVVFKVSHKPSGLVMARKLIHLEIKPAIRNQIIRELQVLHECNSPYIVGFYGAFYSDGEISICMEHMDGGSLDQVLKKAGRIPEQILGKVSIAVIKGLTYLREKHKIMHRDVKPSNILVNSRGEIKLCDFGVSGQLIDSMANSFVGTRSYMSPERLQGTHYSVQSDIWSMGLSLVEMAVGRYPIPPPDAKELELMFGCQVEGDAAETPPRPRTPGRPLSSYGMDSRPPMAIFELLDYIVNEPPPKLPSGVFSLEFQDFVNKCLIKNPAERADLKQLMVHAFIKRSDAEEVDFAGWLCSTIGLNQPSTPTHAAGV
T6 sequence (P10721 with tags, fused parts or gaps): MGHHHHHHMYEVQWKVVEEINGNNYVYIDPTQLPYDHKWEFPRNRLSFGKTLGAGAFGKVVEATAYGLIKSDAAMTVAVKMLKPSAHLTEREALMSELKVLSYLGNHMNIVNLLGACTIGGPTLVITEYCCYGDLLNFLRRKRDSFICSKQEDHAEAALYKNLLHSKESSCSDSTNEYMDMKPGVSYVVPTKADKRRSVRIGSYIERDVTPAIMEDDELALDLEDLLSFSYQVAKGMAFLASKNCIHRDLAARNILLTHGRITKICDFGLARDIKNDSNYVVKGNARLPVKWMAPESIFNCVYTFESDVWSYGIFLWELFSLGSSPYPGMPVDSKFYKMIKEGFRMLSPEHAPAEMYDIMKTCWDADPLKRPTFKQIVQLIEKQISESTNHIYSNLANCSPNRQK
T1 sequence (P11362 458-765 C488A/C584S): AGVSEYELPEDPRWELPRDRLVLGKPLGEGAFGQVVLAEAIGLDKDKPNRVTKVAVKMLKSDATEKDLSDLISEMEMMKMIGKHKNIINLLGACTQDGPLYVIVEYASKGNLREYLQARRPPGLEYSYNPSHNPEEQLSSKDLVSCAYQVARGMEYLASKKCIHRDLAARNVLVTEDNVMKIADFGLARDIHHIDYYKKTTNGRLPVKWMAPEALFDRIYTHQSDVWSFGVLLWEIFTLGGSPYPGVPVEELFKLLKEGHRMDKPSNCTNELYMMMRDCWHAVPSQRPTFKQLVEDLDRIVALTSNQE
T5 sequence (P53779 whole entry): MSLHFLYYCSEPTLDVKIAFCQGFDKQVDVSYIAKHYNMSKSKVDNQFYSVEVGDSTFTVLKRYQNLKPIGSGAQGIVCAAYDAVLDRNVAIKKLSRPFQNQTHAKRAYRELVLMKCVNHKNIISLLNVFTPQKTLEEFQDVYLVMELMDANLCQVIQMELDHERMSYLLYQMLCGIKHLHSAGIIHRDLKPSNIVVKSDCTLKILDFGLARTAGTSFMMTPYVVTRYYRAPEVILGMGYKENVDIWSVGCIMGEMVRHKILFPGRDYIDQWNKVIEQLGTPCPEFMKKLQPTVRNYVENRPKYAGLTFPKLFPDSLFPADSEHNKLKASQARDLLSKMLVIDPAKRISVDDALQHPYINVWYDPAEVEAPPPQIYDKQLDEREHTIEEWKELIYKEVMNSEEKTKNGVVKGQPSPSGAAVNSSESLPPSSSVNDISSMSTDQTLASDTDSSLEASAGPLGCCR
Chain of Akt3 (Q9Y243 whole entry): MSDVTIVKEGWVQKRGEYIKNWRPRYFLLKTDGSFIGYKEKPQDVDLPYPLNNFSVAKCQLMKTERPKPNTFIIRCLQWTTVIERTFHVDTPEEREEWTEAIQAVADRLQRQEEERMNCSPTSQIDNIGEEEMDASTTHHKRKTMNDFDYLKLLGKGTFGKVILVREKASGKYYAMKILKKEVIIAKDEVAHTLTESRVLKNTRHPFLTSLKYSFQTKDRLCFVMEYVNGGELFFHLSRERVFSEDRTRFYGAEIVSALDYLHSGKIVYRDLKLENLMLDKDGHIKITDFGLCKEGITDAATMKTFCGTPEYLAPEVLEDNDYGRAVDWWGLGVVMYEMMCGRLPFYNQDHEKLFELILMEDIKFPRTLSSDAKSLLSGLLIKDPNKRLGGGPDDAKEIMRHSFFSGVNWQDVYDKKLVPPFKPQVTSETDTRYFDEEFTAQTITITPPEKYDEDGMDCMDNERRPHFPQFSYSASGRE
T2 sequence (P35968 20-1356): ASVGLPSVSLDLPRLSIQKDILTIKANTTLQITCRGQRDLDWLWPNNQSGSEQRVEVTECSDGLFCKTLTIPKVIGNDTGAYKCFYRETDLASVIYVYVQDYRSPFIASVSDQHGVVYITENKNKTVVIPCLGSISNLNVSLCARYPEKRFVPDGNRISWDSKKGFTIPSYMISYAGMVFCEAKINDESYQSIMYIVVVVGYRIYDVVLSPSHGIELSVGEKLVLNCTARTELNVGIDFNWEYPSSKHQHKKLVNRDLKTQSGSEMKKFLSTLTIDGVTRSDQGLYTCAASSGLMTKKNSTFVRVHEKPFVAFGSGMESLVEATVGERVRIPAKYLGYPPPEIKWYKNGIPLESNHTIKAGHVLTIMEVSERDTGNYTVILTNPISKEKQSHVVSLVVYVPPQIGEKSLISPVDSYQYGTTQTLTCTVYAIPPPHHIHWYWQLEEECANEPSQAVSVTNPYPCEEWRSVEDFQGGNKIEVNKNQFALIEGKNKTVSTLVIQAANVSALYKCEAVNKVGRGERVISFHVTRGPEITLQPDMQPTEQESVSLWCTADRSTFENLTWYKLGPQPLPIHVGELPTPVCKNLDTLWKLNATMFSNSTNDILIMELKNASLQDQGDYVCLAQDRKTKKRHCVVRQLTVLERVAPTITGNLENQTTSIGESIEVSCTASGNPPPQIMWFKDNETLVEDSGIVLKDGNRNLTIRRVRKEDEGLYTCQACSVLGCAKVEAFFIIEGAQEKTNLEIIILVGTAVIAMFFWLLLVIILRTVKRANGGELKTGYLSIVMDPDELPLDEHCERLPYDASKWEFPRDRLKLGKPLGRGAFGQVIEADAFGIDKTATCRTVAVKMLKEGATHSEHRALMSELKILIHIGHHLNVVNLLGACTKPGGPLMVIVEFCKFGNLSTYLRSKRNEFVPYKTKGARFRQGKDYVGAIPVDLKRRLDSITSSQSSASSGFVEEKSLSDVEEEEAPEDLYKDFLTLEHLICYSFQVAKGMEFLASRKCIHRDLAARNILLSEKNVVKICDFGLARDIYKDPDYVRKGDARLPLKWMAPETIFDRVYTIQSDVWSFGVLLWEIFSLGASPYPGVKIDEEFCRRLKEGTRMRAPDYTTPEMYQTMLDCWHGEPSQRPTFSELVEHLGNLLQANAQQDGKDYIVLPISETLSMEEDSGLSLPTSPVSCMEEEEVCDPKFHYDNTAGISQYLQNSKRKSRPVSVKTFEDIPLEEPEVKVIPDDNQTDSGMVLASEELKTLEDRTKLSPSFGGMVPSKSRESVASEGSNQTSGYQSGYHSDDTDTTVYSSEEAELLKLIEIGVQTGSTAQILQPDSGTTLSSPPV
T8 sequence (P15056 whole entry): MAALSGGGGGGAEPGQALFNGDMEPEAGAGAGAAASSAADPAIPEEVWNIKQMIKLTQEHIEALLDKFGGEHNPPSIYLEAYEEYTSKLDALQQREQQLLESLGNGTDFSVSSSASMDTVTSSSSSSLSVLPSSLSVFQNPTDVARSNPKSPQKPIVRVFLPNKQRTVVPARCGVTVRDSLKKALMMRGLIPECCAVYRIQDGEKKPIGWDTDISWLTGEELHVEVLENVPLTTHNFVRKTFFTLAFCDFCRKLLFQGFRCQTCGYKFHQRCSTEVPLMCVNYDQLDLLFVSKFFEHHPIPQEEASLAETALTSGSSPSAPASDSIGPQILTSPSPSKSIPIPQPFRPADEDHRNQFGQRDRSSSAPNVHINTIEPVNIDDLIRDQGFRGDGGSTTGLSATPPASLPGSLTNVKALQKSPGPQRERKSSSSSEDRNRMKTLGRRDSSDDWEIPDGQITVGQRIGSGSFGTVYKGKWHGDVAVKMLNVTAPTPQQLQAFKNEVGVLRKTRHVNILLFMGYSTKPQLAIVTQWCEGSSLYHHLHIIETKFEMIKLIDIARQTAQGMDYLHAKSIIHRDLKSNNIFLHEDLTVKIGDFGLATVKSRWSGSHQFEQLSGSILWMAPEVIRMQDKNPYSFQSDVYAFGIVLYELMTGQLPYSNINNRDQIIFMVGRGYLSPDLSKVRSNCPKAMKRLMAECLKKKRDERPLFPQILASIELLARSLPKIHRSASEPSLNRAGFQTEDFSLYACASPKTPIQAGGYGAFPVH
T12 sequence (P08581 with tags, fused parts or gaps): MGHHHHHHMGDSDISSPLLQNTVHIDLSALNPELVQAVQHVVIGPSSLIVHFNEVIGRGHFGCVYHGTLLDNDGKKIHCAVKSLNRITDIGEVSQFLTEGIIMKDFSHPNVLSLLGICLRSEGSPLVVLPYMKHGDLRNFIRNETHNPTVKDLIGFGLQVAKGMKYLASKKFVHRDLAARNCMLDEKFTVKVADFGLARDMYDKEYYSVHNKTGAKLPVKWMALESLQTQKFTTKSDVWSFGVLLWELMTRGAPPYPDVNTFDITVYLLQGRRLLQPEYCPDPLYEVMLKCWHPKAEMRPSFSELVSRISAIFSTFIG

Nc1cccc(C(=O)c2c[nH]c3ncccc23)c1 [Compound P-0096]
≤ 10 µM: FGFR1 | Kdr | Ret | IKK beta

c1cc2cc(-c3ccsc3)cnc2[nH]1 [Compound P-0133]
≤ 10 µM: Jnk3 | Kdr | Kit | Stk6 | IKK beta

CS(=O)(=O)c1ccc(-c2cnc3[nH]ccc3c2)cc1 [Compound P-0682]
≤ 10 µM: Jnk3 | Kit | Ret | IKK beta

CCCNS(=O)(=O)c1ccc(F)c(C(=O)c2c[nH]c3ncc(-c4cccnc4)cc23)c1F [Compound P-0896]
≤ 10 µM: B-Raf | B-Raf V600E | c-Raf-1 | FGFR1 | MAP4K4 | IKK beta

COc1cccc(-c2c[nH]c3ncccc23)c1 [Compound P-0216]
≤ 10 µM: Kdr | Kit | IKK beta

CCS(=O)(=O)c1ccc(-c2c[nH]c3ncccc23)cc1 [Compound P-0272]
≤ 10 µM: Stk6 | IKK beta

CN(C)c1ccc(Nc2cnc3[nH]ccc3c2)cc1 [Compound P-0962]
≤ 10 µM: B-Raf V600E | Flt1 | Jnk3 | Kdr | Kit | Met | Akt3 | IKK beta

Cc1ccc(-c2ccnc3[nH]ccc23)cc1N [Compound P-0111]
≤ 10 µM: Kdr | MAP2K1 | Stk6 | IKK beta

Clc1ccc(-c2ccnc3[nH]ccc23)cn1 [Compound P-0127]
≤ 10 µM: Flt1 | Kdr | Kit | Stk6 | Akt3 | IKK beta

C=Cc1ccc(-c2ccnc3[nH]ccc23)cc1 [Compound P-0098]
≤ 10 µM: Kdr | MAP2K1 | Stk6 | IKK beta

c1csc(-c2cnc3[nH]ccc3c2)c1 [Compound P-0179]
≤ 10 µM: Jnk3 | Kdr | Kit | Ret | Stk6 | IKK beta

Cc1nc(-c2ccnc3[nH]ccc23)no1 [Compound P-0163]
≤ 10 µM: Kdr | Stk6 | IKK beta

CS(=O)(=O)c1ccc(-c2c[nH]c3ncccc23)cc1 [Compound P-0177]
≤ 10 µM: Flt1 | Kdr | MAP2K1 | Stk6 | IKK beta

N#CCc1ccc(-c2c[nH]c3ncccc23)cc1 [Compound P-0164]
≤ 10 µM: Kdr | Stk6 | IKK beta

Fc1cc(F)cc(-c2ccnc3[nH]cc(Sc4ccc(Cl)cc4)c23)c1 [Compound P-0172]
≤ 10 µM: Kdr | Stk6 | IKK beta

C(#Cc1ccnc2[nH]ccc12)c1ccccc1 [Compound P-0436]
≤ 10 µM: Stk6 | Akt3 | IKK beta

Cc1cc(-c2c(C)[nH]c3ncccc23)ccc1F [Compound P-0376]
≤ 10 µM: Kdr | IKK beta

c1ccc2sc(-c3ccnc4[nH]ccc34)cc2c1 [Compound P-0404]
≤ 10 µM: FGFR1 | Flt1 | Kit | Akt3 | IKK beta

COc1cccc(C(=O)c2c[nH]c3nccc(-c4ccc(C(N)=O)cc4)c23)c1 [Compound P-0073]
≤ 10 µM: B-Raf V600E | Btk | FGFR1 | Kdr | Ret | IKK beta
